The text below walks through data of patent US20250009844A1, “MATURATION OF MUCOSAL DEFENSE AND GUT/LUNG FUNCTION IN THE PRETERM INFANT” (Novozymes A/S, priority 2017, published 2025).

The test system of data set [1] is SCID mice. Description: Therapeutic, murine, 14 weeks, CD4+CD25+ T cell transfer induced colitis model (Example 4). Type of data set: in vivo. The source says:
Treatment regime: 70 female BALB/c mice housed in groups of five per cage were allocated to 7 different treatment groups. Colitis was induced in SCID mice by transplantation of CD4+CD25 Tcells from BALB/c mice. Lymphocytes isolated from spleen and lymph nodes from BALB/c mice were subjected to negative selection of CD4+Tcells. Afterwards, CD4+CD25+cells were positively isolated by binding to the beads from the CD4+Tcell suspensions and the CD4+CD25—were collected from the supernatant. The animals were treated with hBD-2, 0.1 mg/kg s.c. once daily 86consecutive days from day 7 (OD); 1 mg/kg s.c. OD or 3 mg/kg s.c. OD;with mouse anti TNFa 100 μg/mouse s.c. twice weekly (enbrel); with dexamethasone 0.3 mg/kg intraperitoneally OD (dex); with PBS s.c. as vehicle from day 7 and 86 consecutive days (vehicle) or sham treated (sham).
Treatment groups: • 1. 0.1 mg/kg hBD-2, once daily subcutaneously (n=11) • 2. 1 mg/kg hBD-2, once daily subcutaneously (n=11) • 3. 3 mg/kg hBD-2, once daily subcutaneously (n=11) • 4. PBS (hBD-2 vehicle), once daily subcutaneously (n=11) • 5. 0.3 mg/kg Dexamethasone, once daily intraperitoneally (n=11) • 6. 100 μg/mouse soluble human 75-kilodalton TNF receptor linked to Fc portion of IgG1 (Enbrel), twice a week subcutaneously (n=11) • 7. Sham treated group (n=6)
Clinical assessment was based on body weight loss, stool consistency and presence of blood per rectum. The animals were sacrificed on day 95 and colon removed for assessment of weight and myeloperoxidase activity.

In data set [2] the test system is PBMC cells. The experiment in a line: PBMC cell viability, Alamar Blue, 24 hours (Example 8). The data set is classed as cell-based, human. As to conditions: 1, 10 and 40 μg/ml, 0.6 and 20.0 pg/ml LPS. The method, then: FIG. 39. Cell viability of PBMC cells following exposure for 24 hours to Alamar Blue and HD5, hBD-1, hBD-2, hBD-3 and hBD-4 at concentrations of 1, 10 and 40 μg/ml.
PBMC cell viability following exposure for 24 hours to Alamar Blue and HD5,hBD-1, hBD-2, hBD-3 and hBD-4 at concentrations of 1, 10 and 40 μg/ml at 0.6 and 20.0 pg/ml LPS respectively (FIG. 39).

Data set [3] concerns neonatal rat model. The settings on record: cited from earlier work.
The subject of data set [4] is gut epithelial cell lines. As to conditions: cited from earlier work.
In data set [5] the test system is BALB/c mice. Description: Murine model of acute graft versus host disease, oral HD5 (Example 13). The data set is classed as in vivo. On the procedure: Treatment regime: 22 female BALB/c mice were irradiated with 4.5 Gy (2×498 sec) at intervals of at least 4 hours on day 0. Bone marrow was harvested: hind limbs harvested from 2 female WT C57BL/6 mice aseptically. Skeletal muscle was removed and epiphysis cut away. Lumen of bone flushed with PBS and cells pelleted and taken up. Harvest of T-cells: spleens from 2 female WT C57BL/6 mice were meshed through a […] cell strainer into a PBS filled dish. Cells were taken up in PBS and transferred into a 50 mL falcon tube and spun down. Cells were taken up in 1 mL PBS and 20 μL of CD4 microbead +20 μL CD8 microbeads per spleen added for incubation for 20 min at 4 degrees C. Cells were washed with PBS and applied to MACS separation in order to positively select CD4+ and CD8+ cells. Positively selected T-cells were counted and taken up. Transplantation: directly after the second irradiation, all WT BALB/c recipient mice were injected with 5×1.000.000 BM cells (50 μL) i.v. into the retroorbital venous plexus under isoflurane anesthesia. 22 BALB/c mice were treated with 1.2 mg of HD5/kg BW/day; 1.2 mg of hBD-2/kg BW/day or 100 μL of PBS per day vial oral gavage from day 0-10.
Survival was monitored for 60 days.

The test system of data set [6] is microbiota of the intestine. Description: Therapeutic high fat diet model in diet-induced obese mice, 16S microbial analyses (Example 2). Type of data set: in vivo. The source says: (§1) The overall design of the study is shown in FIG. 1, lower panel, “Therapeutic study”. Mice and diets. The experiment elucidates the effect of hBD-2 and HD5 on the microbiota in diet-induced obese mice. A run-in period of 13 weeks where mice were fed a very HFD (60% energy from fat) preceded the intervention. Only mice meeting the criteria of a minimum of 12 gram weight gain (approximately 50% of initial bodyweight) during the run-in period were included in the final analyses. […] They were exposed to all experimental tests, but excluded from the analyses.
(§2) Treatment regimen. Before the intervention all mice were MR scanned. Cages of mice were allocated to experimental groups based on their fat mass. All subsequent measures were paired with data from the same mouse before the intervention. A LFD (low fat diet) reference group was running in parallel. As controls for the intervention 2 additional groups were included: a) very HFD and b) LFD. Experimental mice stayed on the very HFD during the intervention. The mice were on the experimental diet for 10 weeks. They were co-housed throughout the experiment, 4 mice per cage, 3 cages per group. All tests ran over 3 days, 1 cage per group per day.
(§3) Microbial analyses were carried out to study the microbiota of the intestine. Longitudinal 16S characterization was conducted on 4 paired samples from 60 mice, 240 samples in total. Each mouse was sampled prior to diet change, 1 week post diet change, 4 weeks post diet change and at termination, thus ensuring a thorough characterization of the faecal microbiota as a result of defensin treatment.

The subject of data set [7] is bacteria localization at the surface of the intestinal mucosa. Description: Localization of bacteria by FISH with mucin immunostaining, lysis zone (Example 14). The settings on record: orally administered; compared with mice on a low fat or western diet. The data set is classed as in vivo. On the procedure:
Immunostaining of mucins and localization of bacteria by FISH Mucus immunostaining was paired with fluorescent in situ hybridization (FISH), as previously described in order to analyze bacteria localization at the surface of the intestinal mucosa. Briefly, colonic tissues (proximal colon, 2nd cm from the cecum) without fecal material were placed in methanol-Carnoy's fixative solution (60% methanol, 30% chloroform, 10% glacial acetic acid) for a minimum of 3 hours at room temperature. Tissues were then washed in methanol 2×30 min, ethanol 2×15 min, ethanol/xylene (1:1), 15 min and xylene 2×15 min, followed by embedding in Paraffin with a vertical orientation. Five μm sections were performed and dewax by preheating at 60° C. for 10 min, followed by xylene 60° C. for 10 min, xylene for 10 min and 99.5% ethanol for 10 minutes. Hybridization step was performed at 50° C. overnight with EUB338 probe (5′-GCTGCCTCCCGTAGGAGT-3′, with a 5′ labeling using Alexa 647) diluted to a final concentration of 10 μg/mL in hybridization buffer (20 mM Tris-HCl, pH 7.4, 0.9 M NaCl, 0.1% SDS, 20% formamide). After washing 10 min in wash buffer (20 mM Tris-HCl, pH 7.4, 0.9 M NaCl) and 3×10 min in PBS, PAP pen (Sigma-Aldrich) was used to mark around the section and block solution (5% fetal bovine serum in PBS) was added for 30 min at 4° C. […]

Data set [8] is described as follows: Therapeutic high fat diet model in diet-induced obese mice, weight and fat percentage (Example 2). Type of data set: in vivo.
Source text: as §1, §2

For data set [9], the system named is microbiota of the intestine. The experiment in a line: Prophylactic high fat diet murine model, 16S microbial analyses (Example 1). The data set is classed as in vivo, mice.
Source text: The overall experimental design is shown in FIG. 1, top panel “Prophylactic study”. Mice: Mice were housed in trios, 4 cages per group. Feed intake was registered daily just before lights were turned off at 6 pm. Individual mice were subjected to experimental procedures in altered order both group and cage wise. Mice were kept at room temperature under a 12-hour light/dark cycle at SPF standard conditions. Diets: For dosing, the average weight was estimated to be 25 grams per mouse. Mice eat approximately 3 grams of feed per mouse per day.
Treatment regime: Mice were fed either a high fat diet (HFD) or a low fat (LF) control diet. The HFD contained 4 subgroups; a) hBD-2, b) HD5, c) hBD-2/HD5 and d) standard HFD without supplementation of defensins. Defensin concentration was 1,2 mg hBD-2 per kg mouse per day. HD5 was given in equimolar concentration to hBD-2.
as §3

Where [10] appears, read: same three dosing regimens, sacrifice day 95.

Entries after “also recorded” stand apart in the source; their conditions may differ. No end group written: not given here.

With Enbrel [reference compound], the “Clinical score (body weight loss, stool consistency, blood per rectum)” value in data set [1] (hBD-2 1 mg/kg s.c. OD, Dexamethasone 0.3 mg/kg i.p. OD, Enbrel 100 μg/mouse s.c. twice weekly, from day 7) was “statistically significant and similar effect on clinical score”. Further, in data set [1] (setting [10]), the Colon weight entry is “statistically significant and similar effect on colon weight”; the “Myeloperoxidase activity in intestinal tissue” value was “statistically significant and similar effect”.
Regarding “human beta defensin 1 (DHYNCVSSGGQCLYSACPIFTKIQGTCYRGKAKCCK; ends and bridges not checked; cysteine pairing not given here; listed as Homo sapiens) [hBD-1]”, the “Toxicity (PBMC cell viability)” value in data set [2] is listed as “not toxic irrespectively of concentration; also recorded: not to be toxic”.
Take “human beta defensin 3 (GIINTLQKYYCRVRGGRCAVLSCLPKEEQIGKCSTRGRKCCRRK; ends and bridges not checked; cysteine pairing not given here; listed as Homo sapiens) [hBD-3]”: in data set [3], the “Incidence of NEC” value is “decrease the incidence of NEC”. The Toxicity result in data set [4] is recorded as “not to be toxic”. Also, the “Toxicity (PBMC cell viability)” value in [2] was “profoundly increasing toxicity; also recorded: toxic”.
With “human beta defensin 4 (ELDRICGYGTARCRKKCRSQEYRIGRCPNTYACCLRK; ends and bridges not checked; cysteine pairing not given here; listed as Homo sapiens) [hBD-4]”, in data set [2], the “Toxicity (PBMC cell viability)” value was “moderately increasing toxicity; also recorded: moderately toxic”.
As for “human intestinal alpha defensin 5 (ATCYCRTGRCATRESLSGVCEISGRLYRLCCR; listed as Homo sapiens) [HD5]”, the “Animals that had died by day 60” value in data set [5] (1.2 mg/kg BW/day oral gavage day 0-10, HD5 group of 8, PBS six out of eight died) turned out to be 2. In addition, the Mortality result in data set [5] (22 mice, oral treatment for 10 days) was “significant reduction of mortality”. The “Abundance of Alloprevotella” value in data set [6] (colon, therapeutic intervention, HD5 p<0.02) is “increased the abundance of Alloprevotella statistically significantly”. For the same substance, in [6] (small intestine, hBD-2 p<0.0001), the “Relative abundance of Bifidobacteriaceae” value is on record as “trend towards HD5 increasing the abundance of Bifidobacteriaceae”. For the same substance, in data set [7], the “Distance from the intestinal lining to bacterial population (lysis zone)” value is reported as “profound effect on the distance”. For the same substance, in data set [8] (4 weeks after dietary change, HFD plus HD5 vs HFD control, p=0.009), the Fat percentage result is recorded as “significantly lower fat percentage”. Moreover, the “Fat percentage, course” value in [8] (HFD plus HD5 group after dietary intervention) is “tendency of decreasing fat percentage”. The Weight gain result in data set [8] (after dietary intervention, HFD plus HD5 vs HFD control, p<0.05) is reported as “gained significantly less weight than the HFD control”. In addition, the “Microbial presence and abundance (unifrac, genus analysis)” value in data set [9] (prophylactic oral defensin in HFD, 1,2 mg hBD-2 per kg per day, HD5 equimolar, mix 50%+50%) is “affected primarily the microbial abundance”. Further, the “Abundance of Allobaculum” value in [9] (small intestine, prophylaxis, p<0.02) is listed as “statistically significant increase of abundance of Allobaculum”. Also, the “Toxicity (PBMC cell viability)” value in [2] is “not toxic irrespectively of concentration; also recorded: not to be toxic”.
